# Test results: patent publication US9029405B2, “5-(biphenyl-4-yl)-3-phenyl-1,2,4-oxadiazolyl derivatives as ligands on the sphingosine 1-phosphate(SIP)receptors” (Merck Serono S.A., priority 2010, dated 2015)
# Where a name gives a salt, the structure may show the parent alone. Read-outs that look alike come from different tables or passages of the source.
# How the values were obtained:
# S1P3 = S1P3 (Homo sapiens, UniProt Q99500); assay: Receptor binding assay, [33P]sphingosine 1-phosphate competition, membranes of CHO cells expressing S1P3
# Chain of S1P3 (Q99500 whole entry, species assumed): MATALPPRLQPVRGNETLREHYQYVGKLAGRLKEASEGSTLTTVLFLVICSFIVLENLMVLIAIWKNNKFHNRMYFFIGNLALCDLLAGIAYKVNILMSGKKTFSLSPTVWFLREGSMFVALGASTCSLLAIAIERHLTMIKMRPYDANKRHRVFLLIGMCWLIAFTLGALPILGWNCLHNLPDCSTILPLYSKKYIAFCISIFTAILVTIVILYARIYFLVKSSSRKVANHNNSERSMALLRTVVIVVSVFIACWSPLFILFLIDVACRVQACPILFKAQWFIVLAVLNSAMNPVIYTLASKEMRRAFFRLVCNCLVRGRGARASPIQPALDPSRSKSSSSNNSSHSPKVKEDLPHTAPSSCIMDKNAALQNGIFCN
# How it was run: (§1)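 SPA competition on CHO membranes with [33P]S1P at 30 pM (S1P1) or 15 pM (S1P3), in 50 mM HEPES pH 7.5, 5 mM MgCl2, 100 mM NaCl, 0.4% fatty acid-free BSA, 60 min at RT. Non-specific binding defined by 1000-fold unlabeled S1P; Ki values reported.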
# S1P1 [1] = target: T1, S1P1 (Homo sapiens, UniProt P21453); assay: S1P1 internalization assay in S1P1-U2OS cells (cell imaging); format: cell-based; design: host or cells: U2OS (human bone osteosarcoma epithelial cells); conditions: U2OS cells expressing S1P1-EGFP, 384-well format
# How it was run: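 U2OS cells stably expressing human S1P1-EGFP, serum-starved 2 h in medium with 0.1% fatty-acid-free BSA, then compound 1 h at 37° C. After fixation and Hoechst nuclear stain, receptor internalization imaged as EGFP spot count per nucleus.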
# Target sequence in this assay (P21453 whole entry): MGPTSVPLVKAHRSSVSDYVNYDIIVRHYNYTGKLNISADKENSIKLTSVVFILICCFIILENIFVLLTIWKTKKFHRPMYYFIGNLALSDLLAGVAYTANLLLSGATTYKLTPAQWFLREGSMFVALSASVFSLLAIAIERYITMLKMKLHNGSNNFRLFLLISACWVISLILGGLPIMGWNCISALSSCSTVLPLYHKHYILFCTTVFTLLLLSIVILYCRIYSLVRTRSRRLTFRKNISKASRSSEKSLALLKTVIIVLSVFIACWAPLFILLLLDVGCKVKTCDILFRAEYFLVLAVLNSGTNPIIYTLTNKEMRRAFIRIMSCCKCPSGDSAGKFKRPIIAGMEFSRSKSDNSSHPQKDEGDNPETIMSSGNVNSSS
# S1P1 [2] = target: T1, S1P1; assay: Receptor binding assay, [33P]sphingosine 1-phosphate competition, membranes of CHO cells expressing S1P1
# How it was run: as §1
# Target sequence in this assay (P21453 whole entry, species assumed): as the sequence (P21453 whole entry) above
# [3] = 96 well plate, read-out: S1P3 Binding Ki [M] (96 well plate)
# [4] = 384 well plate, read-out: S1P3 Binding Ki [M] (384 well plate)
# [5] = 96 well plate, read-out: S1P1 Binding Ki [M] (96 well plate)
# [6] = 384 well plate, read-out: S1P1 Binding Ki [M] (384 well plate)
SMILES,Ki (S1P3; [3]) [M],Ki (S1P3; [4]) [M],EC50 (S1P1 [1]) [nM],Ki (S1P1 [2]; [5]) [M],Ki (S1P1 [2]; [6]) [M]
"COCc1cc(-c2nc(-c3ccc(CN(C)C(C)(C)C(=O)O)c(F)c3)no2)ccc1-c1ccccc1C [Example 43, N-(2-fluoro-4-{5-[2-(methoxymethyl)-2′-methylbiphenyl-4-yl]-1,2,4-oxadiazol-3-yl}benzyl)-N,2-dimethylalanine, hydrochloride salt]",3.15e-06,8.4e-07,24.1,6.3e-10,2.32e-09
"Cc1cc(-c2nc(-c3ccc(CNC(C)(C)C(=O)O)c(F)c3)no2)ccc1-c1ccccc1C(F)(F)F [Example 48, N-(2-fluoro-4-{5-[2-methyl-2′-(trifluoromethyl)biphenyl-4-yl]-1,2,4-oxadiazol-3-yl}benzyl)-2-methylalanine, hydrochloride salt]",–,> 2e-05,23.8,–,4.68e-09
"Cc1ccccc1-c1ccc(-c2nc(-c3ccc([C@H](C)N[C@H](C)C(=O)O)cc3)no2)cc1C(F)(F)F [Example 17, N-[(1S)-1-(4-{5-[2′-methyl-2-(trifluoromethyl)biphenyl-4-yl]-1,2,4-oxadiazol-3-yl}phenyl)ethyl]-D-alanine, hydrochloride salt]",–,2.25e-06,21,–,2.01e-09
"Cc1ccccc1-c1ccc(-c2nc(-c3ccc(C(C)NCC(=O)O)cc3)no2)cc1C(F)(F)F (stereo not shown) [Example 32, N-[1-(4-{5-[2′-methyl-2-(trifluoromethyl)biphenyl-4-yl]-1,2,4-oxadiazol-3-yl}phenyl)ethyl]glycine, hydrochloride salt]",–,4.33e-07,7.58,–,1.69e-09
"Cc1ccccc1-c1ccc(-c2nc(-c3ccc(CN(C)[C@H](C(=O)O)C(C)C)c(F)c3)no2)cc1C(F)(F)F [Example 13, N-(2-fluoro-4-{5-[2′-methyl-2-(trifluoromethyl)biphenyl-4-yl]-1,2,4-oxadiazol-3-yl}benzyl)-N-methylvaline, hydrochloride salt]",–,1.53e-06,283,–,5.23e-09
"Cc1cc(-c2nc(-c3ccc([C@@H](C)N[C@H](C)C(=O)O)cc3)no2)ccc1-c1ccccc1C(F)(F)F [Example 6, N-[(1R)-1-(4-{5-[2-methyl-2′-(trifluoromethyl)biphenyl-4-yl]-1,2,4-oxadiazol-3-yl}phenyl)ethyl]-D-alanine, hydrochloride salt]",> 2e-05,> 2e-05,7.57,9.92e-10,2.18e-09
"Cc1ccccc1-c1ccc(-c2nc(-c3ccc(CNC(C)(C)C(=O)O)c(F)c3)no2)cc1C(F)(F)F [Example 49, N-(2-fluoro-4-{5-[2′-methyl-2-(trifluoromethyl)biphenyl-4-yl]-1,2,4-oxadiazol-3-yl}benzyl)-2-methylalanine, hydrochloride salt]",–,9.71e-07,13.8,–,1.06e-09
"Cc1ccccc1-c1ccc(-c2nc(-c3cc(F)cc(CN[C@@H](CC(C)C)C(=O)O)c3)no2)cc1C(F)(F)F [Example 12, N-(3-fluoro-5-{5-[2′-methyl-2-(trifluoromethyl)biphenyl-4-yl]-1,2,4-oxadiazol-3-yl}benzyl)leucine, hydrochloride salt]",–,6.43e-07,28.9,–,2.58e-09
"COCc1cc(-c2nc(-c3ccc([C@H](C)N[C@H](C)C(=O)O)cc3)no2)ccc1-c1ccccc1C [Example 3, N-[(1S)-1-(4-{5-[2-(methoxymethyl)-2′-methylbiphenyl-4-yl]-1,2,4-oxadiazol-3-yl}phenyl)ethyl]-D-alanine, hydrochloride salt]",–,2.59e-06,8.19,3.4e-10,2e-09
"Cc1cc(-c2nc(-c3ccc([C@@H](C)NCC(=O)O)cc3)no2)ccc1-c1ccccc1C(F)(F)F [Example 8, N-[(1R)-1-(4-{5-[2-methyl-2′-(trifluoromethyl)biphenyl-4-yl]-1,2,4-oxadiazol-3-yl}phenyl)ethyl]glycine, hydrochloride salt]",> 2e-05,6.38e-06,26.9,9.13e-10,3.68e-09
"Cc1ccccc1-c1ccc(-c2nc(-c3ccc([C@H](C)NCC(=O)O)cc3)no2)cc1C(F)(F)F [Example 21, N-[(1S)-1-(4-{5-[2′-methyl-2-(trifluoromethyl)biphenyl-4-yl]-1,2,4-oxadiazol-3-yl}phenyl)ethyl]glycine, hydrochloride salt]",–,1.21e-06,11.2,–,2.19e-09
"Cc1ccccc1-c1ccc(-c2nc(-c3ccc(CN[C@H](C(=O)O)C(C)C)c(F)c3)no2)cc1C(F)(F)F [Example 47, N-(2-fluoro-4-{5-[2′-methyl-2-(trifluoromethyl)biphenyl-4-yl]-1,2,4-oxadiazol-3-yl}benzyl)valine, hydrochloride salt]",–,1.95e-05,39.1,–,4.26e-09
"COCc1cc(-c2nc(-c3ccc(CNC(C)(C)C(=O)O)c(F)c3)no2)ccc1-c1ccccc1C [Example 16, N-(2-fluoro-4-{5-[2-(methoxymethyl)-2′-methylbiphenyl-4-yl]-1,2,4-oxadiazol-3-yl}benzyl)-2-methylalanine, hydrochloride salt]",–,7.2e-07,8.43,–,1.23e-09

# Further lines, results first:
Ki (S1P3; [3]) [M],Ki (S1P3; [4]) [M],EC50 (S1P1 [1]) [nM],Ki (S1P1 [2]; [5]) [M],Ki (S1P1 [2]; [6]) [M],SMILES
–,1.72e-07,49.5,–,1.72e-09,Cc1ccccc1-c1ccc(-c2nc(-c3cccc(CN(C)[C@@H](C)C(=O)O)c3)no2)cc1C(F)(F)F [Example 81]
–,4.67e-06,28.6,–,1.22e-08,Cc1ccccc1-c1ccc(-c2nc(-c3ccc(CCN[C@H](C)C(=O)O)cc3)no2)cc1C(F)(F)F [Example 93]
–,1.99e-06,45.9,–,6.78e-09,Cc1ccccc1-c1ccc(-c2nc(-c3ccc(CNC(C(=O)O)C(C)O)cc3)no2)cc1C(F)(F)F (stereo not shown) [Example 64]
–,4.49e-06,28.5,–,3.45e-09,Cc1ccccc1-c1ccc(-c2nc(-c3ccc(CN[C@@H](C)C(=O)O)cc3)no2)cc1C(F)(F)F [Example 67]
–,2.02e-07,3.47,–,1.15e-09,Cc1ccccc1-c1ccc(-c2nc(-c3ccc(CNCC(C)C(=O)O)cc3)no2)cc1C(F)(F)F (stereo not shown) [Example 63]
–,4.68e-07,24.9,–,2.29e-09,"CCN(Cc1cccc(-c2noc(-c3ccc(-c4ccccc4C)c(C(F)(F)F)c3)n2)c1)[C@H](CO)C(=O)O [Example 87, (R)-2-(Ethyl-{3-[5-(2′-methyl-2-trifluoromethyl-biphenyl-4-yl)-[1,2,4]oxadiazol-3-yl]-benzyl}-amino)-3-hydroxy-propionic acid]"
–,> 2e-05,44.4,–,6.83e-09,Cc1ccccc1-c1ccc(-c2nc(-c3ccc(CNC4(C(=O)O)CCCC4)cc3)no2)cc1C(F)(F)F [Example 59]
–,7.93e-07,47.9,–,5.26e-09,Cc1ccccc1-c1ccc(-c2nc(-c3cccc(CN(C)C(C(=O)O)C(C)C)c3)no2)cc1C(F)(F)F (stereo not shown) [Example 85]
–,2.66e-06,31.9,–,3.94e-09,Cc1ccccc1-c1ccc(-c2nc(-c3ccc(CN(C)[C@H](CO)C(=O)O)cc3)no2)cc1C(F)(F)F [Example 72]
